Literature values in patent publication US20200029555A1, “BIODEGRADABLE HYDROGEL TO DELIVER AQUEOUS BAIT TO CONTROL PEST ANTS” (priority 2016, published 2020).

What was measured:
[1] = test system: Argentine ants; conditions: 0.001% liquid thiamethoxam
[2] = test system: laboratory colonies of queens and workers; conditions: liquid baits 0.00001-0.005% thiamethoxam; 14-day period

CN1COCN(Cc2cnc(Cl)s2)/C1=N\[N+](=O)[O-] [thiamethoxam]
reduction of Argentine ants in urban settings [1]: successfully reduced | mortality of laboratory colonies of queens and workers [2]: complete mortality
